{"source": "paper PMC5218480", "about": "(PLoS ONE, 2017)", "tested_on": "MV-4-11 cells", "test": "Gene expression microarray analysis (Affymetrix PrimeView) and GSEA", "assay_type": "cell-based, human", "set-up": "RFU PODN (11730768_x_at) / Fold change /veh PODN (11730768_x_at) / RFU LINC00158 (11744669_a_at) / Fold change /veh LINC00158 (11744669_a_at) / RFU DUSP10 (11751237_a_at) / Fold change /veh DUSP10 (11751237_a_at) / RFU ID3 (11757404_x_at) / Fold change /veh ID3 (11757404_x_at) / RFU PLEKHG5 (11737974_s_at) / Fold change /veh PLEKHG5 (11737974_s_at) / RFU LRRC4B (11730491_at) / Fold change /veh LRRC4B (11730491_at) / RFU GIMAP4 (11747438_a_at) / Fold change /veh GIMAP4 (11747438_a_at) / RFU KRT8 (11758183_x_at) / Fold change /veh KRT8 (11758183_x_at) / RFU CNN1 (11734310_a_at) / Fold change /veh CNN1 (11734310_a_at) / RFU VPS37D (11726825_at) / Fold change /veh VPS37D (11726825_at) / RFU C10orf10 (11716522_x_at) / Fold change /veh C10orf10 (11716522_x_at) / RFU KIR2DL2 /// KIR2DL4 /// KIR2DL5A /// KIR2DL5B /// KIR2DS1 /// KIR2DS2 /// KIR2DS3 /// KIR2DS4 /// KIR3DL3 /// KIR3DL3 /// KIR3DS1 (11738374_at) / Fold change /veh KIR2DL2 /// KIR2DL4 /// KIR2DL5A /// KIR2DL5B /// KIR2DS1 /// KIR2DS2 /// KIR2DS3 /// KIR2DS4 /// KIR3DL3 /// KIR3DL3 /// KIR3DS1 (11738374_at) / RFU C1QL1 (11718748_at) / Fold change /veh C1QL1 (11718748_at) / RFU TMPRSS4 (11747572_a_at) / Fold change /veh TMPRSS4 (11747572_a_at) / RFU HAMP (11756126_x_at) / Fold change /veh HAMP (11756126_x_at) / RFU RNFT2 (11725882_a_at) / Fold change /veh RNFT2 (11725882_a_at) / RFU NR4A2 (11747474_a_at) / Fold change /veh NR4A2 (11747474_a_at) / RFU ABCC12 (11746883_a_at) / Fold change /veh ABCC12 (11746883_a_at) / RFU TMEM136 (11760407_x_at) / Fold change /veh TMEM136 (11760407_x_at) / RFU CLDN22 /// WWC2 (11732394_at) / Fold change /veh CLDN22 /// WWC2 (11732394_at) / RFU HLA-DPB1 (11760878_x_at) / Fold change /veh HLA-DPB1 (11760878_x_at) / RFU SPINT1 (11716480_a_at) / Fold change /veh SPINT1 (11716480_a_at) / RFU GAP43 (11754022_s_at) / Fold change /veh GAP43 (11754022_s_at) / RFU A4GNT (11735810_at) / Fold change /veh A4GNT (11735810_at) / RFU PRB3 (11715151_x_at) / Fold change /veh PRB3 (11715151_x_at) / RFU TUBB4B (11761932_at) / Fold change /veh TUBB4B (11761932_at) / RFU CAPN14 (11732068_a_at) / Fold change /veh CAPN14 (11732068_a_at) / RFU TMCC2 (11721928_a_at) / Fold change /veh TMCC2 (11721928_a_at) / RFU IRGQ (11745062_a_at) / Fold change /veh IRGQ (11745062_a_at) / RFU FAM174B (11720279_a_at) / Fold change /veh FAM174B (11720279_a_at) / RFU TMPRSS4 (11748680_a_at) / Fold change /veh TMPRSS4 (11748680_a_at) / RFU FAM212B (11763350_a_at) / Fold change /veh FAM212B (11763350_a_at) / RFU PLEKHG5 (11743358_a_at) / Fold change /veh PLEKHG5 (11743358_a_at) / RFU ZSCAN30 (11745921_a_at) / Fold change /veh ZSCAN30 (11745921_a_at) / RFU CMKLR1 (11741424_a_at) / Fold change /veh CMKLR1 (11741424_a_at) / RFU LOC101060620 /// MAPK8IP1 (11723275_at) / Fold change /veh LOC101060620 /// MAPK8IP1 (11723275_at) / RFU SPTSSB (11747773_x_at) / Fold change /veh SPTSSB (11747773_x_at) / RFU PRSS12 (11739890_at) / Fold change /veh PRSS12 (11739890_at) / RFU BIN1 (11741810_x_at) / Fold change /veh BIN1 (11741810_x_at) / RFU WNT11 (11732464_a_at) / Fold change /veh WNT11 (11732464_a_at) / RFU C10orf10 (11716521_a_at) / Fold change /veh C10orf10 (11716521_a_at) / RFU C5orf56 (11738089_at) / Fold change /veh C5orf56 (11738089_at) / RFU CYB561 (11721691_x_at) / Fold change /veh CYB561 (11721691_x_at) / RFU ANKRD19P (11752326_a_at) / Fold change /veh ANKRD19P (11752326_a_at) / RFU OR2T12 /// OR2T33 /// OR2T8 (11738714_s_at) / Fold change /veh OR2T12 /// OR2T33 /// OR2T8 (11738714_s_at) / RFU VCAN (11748164_a_at) / Fold change /veh VCAN (11748164_a_at) / RFU JSRP1 (11732532_at) / Fold change /veh JSRP1 (11732532_at) / RFU KRTAP10-11 (11738290_x_at) / Fold change /veh KRTAP10-11 (11738290_x_at) / RFU MYO3A (11730013_a_at) / Fold change /veh MYO3A (11730013_a_at) / RFU EBF3 (11725865_a_at) / Fold change /veh EBF3 (11725865_a_at) / RFU CAMK2N1 (11719241_x_at) / Fold change /veh CAMK2N1 (11719241_x_at) / RFU C5orf56 (11738088_a_at) / Fold change /veh C5orf56 (11738088_a_at) / RFU OLFML3 (11715873_a_at) / Fold change /veh OLFML3 (11715873_a_at) / RFU LOC100653217 /// NTM (11731650_a_at) / Fold change /veh LOC100653217 /// NTM (11731650_a_at) / RFU MAPK11 (11762145_a_at) / Fold change /veh MAPK11 (11762145_a_at) / RFU FIZ1 (11724087_x_at) / Fold change /veh FIZ1 (11724087_x_at) / RFU OASL (11726364_x_at) / Fold change /veh OASL (11726364_x_at) / RFU SOX15 (11748057_x_at) / Fold change /veh SOX15 (11748057_x_at) / RFU CD79A (11719716_a_at) / Fold change /veh CD79A (11719716_a_at) / RFU HIST1H1D (11736915_at) / Fold change /veh HIST1H1D (11736915_at) / RFU CASKIN2 (11723855_a_at) / Fold change /veh CASKIN2 (11723855_a_at) / RFU LOC730098 (11760151_x_at) / Fold change /veh LOC730098 (11760151_x_at) / RFU OR4N2 (11742367_at) / Fold change /veh OR4N2 (11742367_at) / RFU PRRT2 (11749266_a_at) / Fold change /veh PRRT2 (11749266_a_at) / RFU SNX32 (11753110_a_at) / Fold change /veh SNX32 (11753110_a_at) / RFU CDHR5 (11726645_a_at) / Fold change /veh CDHR5 (11726645_a_at) / RFU RCAN1 (11760418_a_at) / Fold change /veh RCAN1 (11760418_a_at) / RFU FAM167A (11723789_a_at) / Fold change /veh FAM167A (11723789_a_at) / RFU FAM26E (11764081_at) / Fold change /veh FAM26E (11764081_at) / RFU ISYNA1 (11749810_s_at) / Fold change /veh ISYNA1 (11749810_s_at) / RFU ACY1 (11761880_at) / Fold change /veh ACY1 (11761880_at) / RFU 11764098_at / Fold change /veh 11764098_at / RFU SAMD14 (11745864_x_at) / Fold change /veh SAMD14 (11745864_x_at) / RFU NPB (11741838_a_at) / Fold change /veh NPB (11741838_a_at) / RFU TMPRSS6 (11731388_a_at) / Fold change /veh TMPRSS6 (11731388_a_at) / RFU KRTAP10-2 (11738614_at) / Fold change /veh KRTAP10-2 (11738614_at) / RFU ARHGAP8 /// PRR5-ARHGAP8 (11727945_x_at) / Fold change /veh ARHGAP8 /// PRR5-ARHGAP8 (11727945_x_at) / RFU KRTAP5-7 /// NADSYN1 (11734609_at) / Fold change /veh KRTAP5-7 /// NADSYN1 (11734609_at) / RFU RASL12 (11751679_a_at) / Fold change /veh RASL12 (11751679_a_at) / RFU CDKN2B (11736163_a_at) / Fold change /veh CDKN2B (11736163_a_at) / RFU PRF1 (11729649_at) / Fold change /veh PRF1 (11729649_at) / RFU, ZNF638 /// ZNF638-IT1 / Fold change vs veh, ZNF638 /// ZNF638-IT1 / RFU, PANK3 / Fold change vs veh, PANK3 / RFU, SH3YL1 / Fold change vs veh, SH3YL1 / RFU, ZEB2 / Fold change vs veh, ZEB2 / RFU, NRIP1 / Fold change vs veh, NRIP1 / RFU, PTTG1IP / Fold change vs veh, PTTG1IP / RFU, CAPN2 / Fold change vs veh, CAPN2 / RFU, MED14 / Fold change vs veh, MED14 / RFU, SNORA58 / Fold change vs veh, SNORA58 / RFU, C1orf63 / Fold change vs veh, C1orf63 / RFU, LRRFIP1 / Fold change vs veh, LRRFIP1 / RFU, NDUFAF7 / Fold change vs veh, NDUFAF7 / RFU, SLC12A2 / Fold change vs veh, SLC12A2 / RFU, IBTK / Fold change vs veh, IBTK / RFU, ESF1 / Fold change vs veh, ESF1 / Fold change vs veh, TMEM50B / RFU, TAOK1 / Fold change vs veh, TAOK1 / RFU, ACBD3 / Fold change vs veh, ACBD3 / RFU, TMA16 / Fold change vs veh, TMA16 / RFU, RWDD3 / Fold change vs veh, RWDD3 / RFU, BCAT1 / Fold change vs veh, BCAT1 / RFU, EDEM3 / Fold change vs veh, EDEM3 / RFU, TMEM33 / Fold change vs veh, TMEM33 / RFU, WDR75 / Fold change vs veh, WDR75 / RFU, AHCTF1 / Fold change vs veh, AHCTF1 / RFU, TFRC / Fold change vs veh, TFRC / RFU, ZDHHC17 / Fold change vs veh, ZDHHC17 / RFU, NOM1 / Fold change vs veh, NOM1 / RFU, ARL8B / Fold change vs veh, ARL8B / RFU, ZBTB11 / Fold change vs veh, ZBTB11 / RFU, TAMM41 / Fold change vs veh, TAMM41 / RFU, KIAA1704 /// LOC100996395 / Fold change vs veh, KIAA1704 /// LOC100996395 / RFU, ING1 / Fold change vs veh, ING1 / RFU, TRMT61B / Fold change vs veh, TRMT61B / RFU, FUBP3 / Fold change vs veh, FUBP3 / RFU, TP53 / Fold change vs veh, TP53 / RFU, TNKS2 / Fold change vs veh, TNKS2 / RFU, ZFP14 / Fold change vs veh, ZFP14 / RFU, ACTR2 / Fold change vs veh, ACTR2 / RFU, PPP3R1 / Fold change vs veh, PPP3R1 / RFU, PIK3R1 / Fold change vs veh, PIK3R1 / RFU, HNRNPA1 / Fold change vs veh, HNRNPA1 / RFU, RNF170 / Fold change vs veh, RNF170 / RFU, ZNF28 / Fold change vs veh, ZNF28 / RFU, RNGTT / Fold change vs veh, RNGTT / RFU, OGT / Fold change vs veh, OGT / RFU, BRD1 / Fold change vs veh, BRD1 / RFU, MARS / Fold change vs veh, MARS / RFU, ZNF655 / Fold change vs veh, ZNF655 / RFU, FAHD1 / Fold change vs veh, FAHD1 / RFU, BDP1 / Fold change vs veh, BDP1 / RFU, LRRCC1 / Fold change vs veh, LRRCC1 / RFU, ARID1A / Fold change vs veh, ARID1A / RFU, ZNF146 / Fold change vs veh, ZNF146 / RFU, ZNF330 / Fold change vs veh, ZNF330 / RFU, GPN3 / Fold change vs veh, GPN3 / RFU, C9orf123 / Fold change vs veh, C9orf123 / RFU, N4BP2L2 / Fold change vs veh, N4BP2L2 / RFU, ARFIP1 / Fold change vs veh, ARFIP1 / RFU, FAM179B / Fold change vs veh, FAM179B / RFU, BCL10 / Fold change vs veh, BCL10 / RFU, UHRF1BP1L / Fold change vs veh, UHRF1BP1L / RFU, BET1 / Fold change vs veh, BET1 / RFU, CNOT2 / Fold change vs veh, CNOT2 / RFU, ZNF268 / Fold change vs veh, ZNF268 / Fold change vs veh, ZNF507 / RFU, DGCR2 / Fold change vs veh, DGCR2 / RFU, WDSUB1 / Fold change vs veh, WDSUB1 / Fold change vs veh, HSP90B1 /// MIR3652 / RFU, ADSS / Fold change vs veh, ADSS / RFU, GK / Fold change vs veh, GK / RFU, ZNF148 / Fold change vs veh, ZNF148 / RFU, TAF9 / Fold change vs veh, TAF9 / RFU, SLC1A5 / Fold change vs veh, SLC1A5 / RFU, SLMO2 / Fold change vs veh, SLMO2 / RFU, ABCC4 / Fold change vs veh, ABCC4 / RFU, LOC101060439 /// RAP1B / Fold change vs veh, LOC101060439 /// RAP1B / RFU, RFX7 / Fold change vs veh, RFX7 / RFU, GTPBP10 / Fold change vs veh, GTPBP10 / RFU, CNEP1R1 / Fold change vs veh, CNEP1R1 / RFU, BIVM-ERCC5 /// ERCC5 / Fold change vs veh, BIVM-ERCC5 /// ERCC5 / RFU, ILF3 / Fold change vs veh, ILF3 / RFU 11762660_at / Fold change /veh 11762660_at / RFU VCAN (11757783_s_at) / Fold change /veh VCAN (11757783_s_at) / RFU DDX43 (11728927_at) / Fold change /veh DDX43 (11728927_at) / RFU KRT8 (11758188_x_at) / Fold change /veh KRT8 (11758188_x_at) / RFU NKD1 (11759106_at) / Fold change /veh NKD1 (11759106_at) / RFU SRD5A1 (11742802_a_at) / Fold change /veh SRD5A1 (11742802_a_at) / RFU TPSAB1 /// TPSB2 (11721975_s_at) / Fold change /veh TPSAB1 /// TPSB2 (11721975_s_at) / RFU GSTM3 (11746129_a_at) / Fold change /veh GSTM3 (11746129_a_at) / RFU IL23R (11737362_x_at) / Fold change /veh IL23R (11737362_x_at) / RFU TMEM51 (11727254_a_at) / Fold change /veh TMEM51 (11727254_a_at) / RFU PIWIL2 (11732686_x_at) / Fold change /veh PIWIL2 (11732686_x_at) / RFU ORM1 (11744905_x_at) / Fold change /veh ORM1 (11744905_x_at) / RFU CCDC152 (11743942_at) / Fold change /veh CCDC152 (11743942_at) / RFU ECM1 (11717891_a_at) / Fold change /veh ECM1 (11717891_a_at) / RFU IL23R (11748794_a_at) / Fold change /veh IL23R (11748794_a_at) / RFU TNFAIP8L3 (11732012_x_at) / Fold change /veh TNFAIP8L3 (11732012_x_at) / RFU MBOAT4 (11741988_at) / Fold change /veh MBOAT4 (11741988_at) / RFU 11764193_at / Fold change /veh 11764193_at / RFU TMEM53 (11763286_at) / Fold change /veh TMEM53 (11763286_at) / RFU MAGEB2 (11727129_at) / Fold change /veh MAGEB2 (11727129_at) / RFU TMEM200A (11744735_a_at) / Fold change /veh TMEM200A (11744735_a_at) / RFU CCDC152 (11751479_a_at) / Fold change /veh CCDC152 (11751479_a_at) / RFU FAM211A (11726209_a_at) / Fold change /veh FAM211A (11726209_a_at) / RFU RGS16 (11746705_a_at) / Fold change /veh RGS16 (11746705_a_at) / RFU VCAN (11755009_s_at) / Fold change /veh VCAN (11755009_s_at) / RFU RHOB (11743442_s_at) / Fold change /veh RHOB (11743442_s_at) / RFU RGS16 (11720943_a_at) / Fold change /veh RGS16 (11720943_a_at) / RFU RGS16 (11720944_at) / Fold change /veh RGS16 (11720944_at) / RFU, VPS4B / Fold change vs veh, VPS4B / RFU, CREB1 / Fold change vs veh, CREB1 / RFU, DNAJC13 / Fold change vs veh, DNAJC13 / RFU, GNAQ / Fold change vs veh, GNAQ / RFU, CDK5R1 / Fold change vs veh, CDK5R1 / RFU, ZRANB3 / Fold change vs veh, ZRANB3 / RFU, CUL4A / Fold change vs veh, CUL4A / RFU, CCNY / Fold change vs veh, CCNY / RFU, UFL1 / Fold change vs veh, UFL1 / RFU, COG3 / Fold change vs veh, COG3 / RFU, DIAPH2 / Fold change vs veh, DIAPH2 / RFU, SKA2 / Fold change vs veh, SKA2 / RFU, AFF3 / Fold change vs veh, AFF3 / RFU, LMF1 / Fold change vs veh, LMF1 / RFU, IPO11 / Fold change vs veh, IPO11 / RFU, DFFB / Fold change vs veh, DFFB / RFU, FOXP1 / Fold change vs veh, FOXP1 / RFU, CARD8 / Fold change vs veh, CARD8 / RFU, STRN3 / Fold change vs veh, STRN3 / RFU, ADK / Fold change vs veh, ADK / RFU, RASSF2 / Fold change vs veh, RASSF2 / RFU, WIPF1 / Fold change vs veh, WIPF1 / RFU, LARP1B / Fold change vs veh, LARP1B / RFU, RASA1 / Fold change vs veh, RASA1 / RFU, RB1 / Fold change vs veh, RB1 / RFU, PPFIA1 / Fold change vs veh, PPFIA1 / RFU, MAT2A / Fold change vs veh, MAT2A / RFU, CCT5 / Fold change vs veh, CCT5 / RFU, WDR92 / Fold change vs veh, WDR92 / RFU, CUX1 / Fold change vs veh, CUX1 / RFU, TTC7A / Fold change vs veh, TTC7A / RFU, TMEM135 / Fold change vs veh, TMEM135 / RFU, DEPTOR / Fold change vs veh, DEPTOR / RFU, CPM / Fold change vs veh, CPM / RFU, DNAJB6 / Fold change vs veh, DNAJB6 / RFU, CACNA2D3 / Fold change vs veh, CACNA2D3 / RFU, DTX4 / Fold change vs veh, DTX4 / RFU, TFCP2 / Fold change vs veh, TFCP2 / RFU, GMCL1 /// GMCL1P1 / Fold change vs veh, GMCL1 /// GMCL1P1 / RFU, AEBP2 / Fold change vs veh, AEBP2 / RFU, SNHG1 /// SNORD22 /// SNORD25 /// SNORD26 /// SNORD27 /// SNORD28 /// SNORD29 /// SNORD31 / Fold change vs veh, SNHG1 /// SNORD22 /// SNORD25 /// SNORD26 /// SNORD27 /// SNORD28 /// SNORD29 /// SNORD31 / Fold change (Aza/veh), C12orf56 (ProbeSet 11735607_a_at) / Fold change (ACY-1035/veh), C12orf56 (ProbeSet 11735607_a_at) / Fold change (Aza/veh), FGFR1OP (ProbeSet 11751329_s_at) / Fold change (ACY-1035/veh), FGFR1OP (ProbeSet 11751329_s_at) / Fold change (Aza/veh), VPS36 (ProbeSet 11739960_a_at) / Fold change (ACY-1035/veh), VPS36 (ProbeSet 11739960_a_at) / RFU SYPL1 (11715823_x_at) / Fold change /veh SYPL1 (11715823_x_at) / RFU IGFBP7 (11715501_s_at) / Fold change /veh IGFBP7 (11715501_s_at) / RFU REEP3 (11722064_at) / Fold change /veh REEP3 (11722064_at) / RFU IGLL1 (11728026_x_at) / Fold change /veh IGLL1 (11728026_x_at): dose or concentration left out as unconfirmed", "settings": "MV-4-11 cells, 48 hours", "data": [{"smiles": "Nc1ncn([C@@H]2O[C@H](CO)[C@@H](O)[C@H]2O)c(=O)n1", "note": "[azacitidine]", "values": [{"measurement": "Fold change /veh GIMAP4 (11747438_a_at)", "value": 1.07}]}]}
